Reference: patent publication US10617706B2, “Compounds for cancer chemotherapeutic sensitization” (Regents of the University of Minnesota, priority 2018, dated 2020)
Like-named read-outs stand apart in the source and are kept apart here.

Columns and labels:
[1] = target: hTdp2 (Rec) (Homo sapiens (Human), UniProt O95551); assay: SUMO hTDP2cat fluorescence-based biochemical assay
Description: Biochemical Potency. The enzymatic activity of TDP2 was measured with a SUMO hTDP2cat fluorescence-based biochemical assay. […] After a pre-incubation period of 10 minutes, 5 μL of substrate 5′-(6-FAM-NHS)(5′-tyrosine)GATCT(3′-BHQ-1)-3′ (1 μM, final concentration of 0.25 μM) was added, and the reaction was allowed to proceed at 25° C. for 60 minutes. The fluorescence was measured, and the data was processed as described previously for 14M_zTDP2.

[2] = test system: DT40 lymphoma cells; conditions: in cancer cells, at 50 μM of compound 5-I; sensitizing effect; cited from earlier work
[3] = SUMO hTDP2cat 3.13 pM, substrate 0.25 μM, 25° C., 60 minutes, read-out: hTdp2 (Rec) IC50

hTdp2 (Rec), sequence (O95551 113-362): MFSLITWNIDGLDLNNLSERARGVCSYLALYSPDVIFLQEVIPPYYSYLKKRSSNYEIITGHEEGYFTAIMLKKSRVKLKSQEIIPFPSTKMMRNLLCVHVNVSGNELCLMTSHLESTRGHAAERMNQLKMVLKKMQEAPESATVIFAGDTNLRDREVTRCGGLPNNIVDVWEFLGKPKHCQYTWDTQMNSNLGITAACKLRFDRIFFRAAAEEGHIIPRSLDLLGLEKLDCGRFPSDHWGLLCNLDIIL

IC50 [1, 3] [nM] | SMILES | IC50 [1] [nM] | also measured
 | N#Cc1ccc2cc3c(=O)[nH]c(=O)nc-3n(-c3ccc(Oc4ccc(NC(=O)Oc5ccccc5)cc4)cc3)c2c1 [Example 118] | 795 ± 40 | 
8.28 ± 0.44 | CC1(C)OB(c2cccc(Oc3ccc(-n4c5nc(=O)[nH]c(=O)c-5cc5ccc(C#N)cc54)cc3)c2)OC1(C)C [Example 119, 2,4-Dioxo-10-(4-(3-(4,4,5,5-tetramethyl-1,3,2-dioxaborolan-2-yl)phenoxy)phenyl)-2,3,4,10-tetrahydropyrimido[4,5-b]quinoline-8-carbonitrile] |  | 
5.01 ± 0.69 | N#Cc1ccc2cc3c(=O)[nH]c(=O)nc-3n(-c3ccc(Oc4cccc(B(O)O)c4)cc3)c2c1 [Example 120, (3-(4-(8-Cyano-2,4-dioxo-3,4-dihydropyrimido[4,5-b]quinolin-10(2H)-yl)phenoxy)phenyl) boronic acid] |  | 
47 ± 4 | CC1(C)OB(c2cccc(COc3ccc(-n4c5nc(=O)[nH]c(=O)c-5cc5ccc(C#N)cc54)cc3)c2)OC1(C)C [Example 121, 2,4-Dioxo-10-(4-((3-(4,4,5,5-tetramethyl-1,3,2-dioxaborolan-2-yl)benzyl)oxy)phenyl)-2,3,4,10-tetrahydropyrimido[4,5-b]quinoline-8-carbonitrile] |  | 
359 ± 32 | CC1(C)OB(c2ccc(COc3ccc(-n4c5nc(=O)[nH]c(=O)c-5cc5ccc(C#N)cc54)cc3)cc2)OC1(C)C [Example 122, 2,4-Dioxo-10-(4-((4-(4,4,5,5-tetramethyl-1,3,2-dioxaborolan-2-yl)benzyl)oxy)phenyl)-2,3,41,10-tetrahydropyrimido[4,5-b]quinoline-8-carbonitrile] |  | 
39 ± 3 | N#Cc1ccc2cc3c(=O)[nH]c(=O)nc-3n(-c3ccc(OCc4cccc(B(O)O)c4)cc3)c2c1 [Example 123, (3-((4-(8-Cyano-2,4-dioxo-3,4-dihydropyrimido [4,5-b]quinolin-10(2H)-yl)phenoxy)methyl)phenyl) boronic acid] |  | 
239 ± 18 | N#Cc1ccc2cc3c(=O)[nH]c(=O)nc-3n(-c3ccc(OCc4ccc(B(O)O)cc4)cc3)c2c1 [Example 124, (4-((4-(8-Cyano-2,4-dioxo-3,4-dihydropyrimido [4,5-b]quinolin-10(2H)-yl)phenoxy)methyl)phenyl) boronic acid] |  | 
 | N#Cc1ccc2cc3c(=O)n(-c4cccc(NC(=O)Oc5ccccc5)c4)c(=O)nc-3n(-c3ccc(O)cc3)c2c1 [Example 132, Phenyl-(3-(8-cyano-10-(4-hydroxyphenyl)-2,4-dioxo-4,10-dihydropyrimido[4,5-b]quinolin-3(2H)-yl)phenyl)carbamate] | 119 ± 4 | 
 | N#Cc1ccc2cc3c(=O)n(-c4ccc(NC(=O)Oc5ccccc5)cc4)c(=O)nc-3n(-c3ccc(O)cc3)c2c1 [Example 133, Phenyl-(4-(8-cyano-10-(4-hydroxyphenyl)-2,4-dioxo-4,10-dihydropyrimido[4,5-b]quinolin-3(2H)-yl)phenyl)carbamate] | 59 ± 4 | 
 | N#Cc1ccc2cc3c(=O)n(-c4cccc(NP(=O)(Oc5ccccc5)Oc5ccccc5)c4)c(=O)nc-3n(-c3ccc(O)cc3)c2c1 [Example 134, Diphenyl-(3-(8-cyano-10-(4-hydroxyphenyl)-2,4-dioxo-4,10-dihydropyrimido[4,5-b]quinolin-3(2H)-yl)phenyl)phosphoramidate] | 277 ± 11 | 
 | N#Cc1ccc2cc3c(=O)n(-c4ccc(NP(=O)(Oc5ccccc5)Oc5ccccc5)cc4)c(=O)nc-3n(-c3ccc(O)cc3)c2c1 [Example 135, Diphenyl-(4-(8-cyano-10-(4-hydroxyphenyl)-2,4-dioxo-4,10-dihydropyrimido[4,5-b]quinolin-3(2H)-yl)phenyl)phosphoramidate] | 185 ± 9 | 
 | N#Cc1ccc2cc3c(=O)n(-c4ccc(CNP(=O)(Oc5ccccc5)Oc5ccccc5)cc4)c(=O)nc-3n(-c3ccc(O)cc3)c2c1 [Example 136, Diphenyl-(4-(8-cyano-10-(4-hydroxyphenyl)-2,4-dioxo-4,10-dihydropyrimido[4,5-b]quinolin-3(2H)-yl)benzyl)phosphoramidate] | 119 ± 3 | 
3.85 ± 0.37 | O=c1nc2n(-c3ccc(Oc4cccc(B(O)O)c4)cc3)c3cc(Cl)ccc3cc-2c(=O)[nH]1 [Example 143, (3-(4-(8-Chloro-2,4-dioxo-3,4-dihydropyrimido[4,5-b]quinolin-10(2H)yl)phenoxy)phenyl) boronic acid] |  | 
 | N#Cc1ccc2cc3c(=O)[nH]c(=O)nc-3n(-c3cccc(-c4nnn[nH]4)c3)c2c1 [compound 5-I] |  | maximal efficacy, cell viability [2]: around 10%
